Experimental findings from patent US8604060B2, “Use of antagonists of the CBI receptor for the manufacture of a composition useful for the treatment of hepatic diseases” (INSERM, priority 2004, dated 2013) are described below.

Data set [1] has as its system human hepatic myofibroblasts. The data set is described as follows: DNA synthesis ([3H] thymidine incorporation) in human hepatic myofibroblasts stimulated with PDGF-BB. Conditions: 20 ng/ml PDGF-BB, 30 h, read-out: half maximal inhibition of DNA synthesis elicited by PDGF-BB. In kind it is cell-based. As to the method:
(§1) FIG. 3: Plots showing the effect of increasing amounts of CB1 antagonist SR141716 on DNA synthesis in human hepatic myofibroblast (panel A) and on wild type mice (shown as WT) and CB1 deficient mice (shown as CB1KO) (panel B). The DNA synthesis is expressed as a percentage of DNA synthesis in cells treated with the vehicle of SR 141716 and plotted against increasing concentrations of SR 141716 in nM. Human hepatic myofibroblast cells were stimulated for 30 h with varying concentrations of the CB1 receptor antagonist SR 141716, in the presence of 20 ng/ml of PDGF-BB [^3H] […] Error bars are shown on the plot. […] Thymidine incorporation into DNA was measured as mean±SEM, from 3-6 experiments obtained from cells isolated from livers of 3 WT and 3 CB1 -/- mice and are expressed as percent of control. […]
(§2) DNA synthesis was measured in triplicate wells by incorporation of [3H] thymidine, as previously described (Tao, J., et al., J Biol Chem, 1999. 274(34): p. 23761-23769). […]
(§3) The cell culture was performed as described in example 1 herein. Cell culture of both human and mouse hepatic myofibroblasts were exposed to increasing doses of CB1 receptor antagonist SR141716 and the DNA synthesis of hepatic myofibroblasts was measured.

Data set [2] has as its system murine myofibroblasts isolated from wild type mice. The data set is described as follows: DNA synthesis ([3H] thymidine incorporation) in murine hepatic myofibroblasts from wild type mice stimulated with PDGF-BB. In kind it is cell-based, mouse. Conditions: 20 ng/ml PDGF-BB, 30 h. As to the method: as §1, §2, §3
The subject of data set [3] is CB1-/- cells (mouse hepatic myofibroblasts). The data set is described as follows: DNA synthesis ([3H] thymidine incorporation) in hepatic myofibroblasts from CB1-/- mice stimulated with PDGF-BB. The class given is cell-based. Conditions: 20 ng/ml PDGF-BB, 30 h. The method, then: as §1, §2, §3
The subject of a further data set is CD1 mice. The data set is described as follows: Mortality induced by chronic carbon tetrachloride intoxication (experimental model of liver fibrosis) in mice. In kind it is in vivo. Conditions: 10 mg/kg daily intraperitoneal. From the text: FIG. 4: Plot showing the effect of SR141716 or its vehicle on the mortality induced by carbon tetrachloride in mice. The survival rate of mice treated with CC14 either with SR141716 (dotted lines) or with no treatment (solid lines showing the administration of vehicle only without CB1 antagonist) is shown against time in days. Time of administration of CC14 is shown by the arrow.
The antifibrogenic potential of the CB1 antagonist SR 141716 in an experimental model of liver fibrosis, induced by chronic intoxication with carbon tetrachloride was evaluated.
SR 141716 (10 mg/kg body weight) was dissolved freshly before use, in a vehicle solution (2 drops of Tween 80 in 10 ml of PBS containing 10% dimethylsulfoxide and 5% ethanol) and sonicated.
CD1 mice were obtained from Janvier (France). All experiments were performed using accepted ethical guidelines. 36 males, aged 10-12 weeks, were used and animals were divided into the following groups: vehicle-treated, olive oil group (n=3); vehicle-treated, CC14 group (n=14); SR 141716-treated olive oil group (n=3); SR 141716A-treated, CC14 group (n=16). Animals were housed in temperature and humidity controlled rooms, kept on a 12-h light/dark cycle and provided unrestricted amounts of food and water, unless otherwise specified. […]

As for `Cc1c(C(=O)NN2CCCCC2)nn(-c2ccc(Cl)cc2Cl)c1-c1ccc(Cl)cc1` [SR141716, N-piperidino-5-(4-chlorophenyl)-1-(2,4-dichlorophenyl)-4-methylpyrazole-3-carboxamide], in data set [1], the IC50 fell in the range of 300 to 400 nM. Also, the “DNA synthesis elicited by PDGF-BB” value in data set [2] was “inhibited”. In addition, the “proliferation (DNA synthesis elicited by PDGF-BB)” value in data set [3] was “only marginally affected”. The “survival rate at one month” value with CD1 mice (CC14 0.5 ml/kg IP twice a week for one month, started 7 days before CC14) worked out at 83%. For the same compound, the “deaths in sham animals” value with CD1 mice (olive oil (sham) mice) is on record as “no deaths”.
